Measured values as given in paper PMC11503657 (Chemical Science, 2024).

Key:
CuAβ1–16 complex = CuAβ1–16 complex (Homo sapiens, UniProt P05067); format: biochemical; details: pH 7.4
CuZnAβ1–16 = CuZnAβ1–16 (Homo sapiens, UniProt P05067); format: biochemical; details: pH 7.4

ROS production: % of Asc consumption in 30 min (CuAβ1–16 complex): 11.3%
ROS production: % of ROS arrest (CuAβ1–16 complex): 88.7%
ROS production: % of Asc consumption in 30 min (CuZnAβ1–16): 100%
ROS production: % of ROS arrest (CuZnAβ1–16): 0%
SMILES: O=C(O)CN(CCN(CC(=O)O)CC(=O)O)CC(=O)O [EDTA, 2,2′,2′′,2′′′-(ethane-1,2-diyldinitrilo)tetraacetic acid]
